Key:
Assay type in all cases: biochemical
BTK-WT = biological target: T1, BTK-WT (Homo sapiens, UniProt Q06187); assay: Btk in vitro inhibitory activity (one of Method A TR-FRET, Method B electrophoretic mobility shift, Method C radiometric filter binding); conditions: Table 13, A compounds; read-out: IC50 BTK-WT
T1 construct: purified from insect cells as a full-length construct containing an N-terminal 6X-His tag; His6 (N); made in house; host or cells: insect cells (baculovirus Sf21 in Method B)
T1 sequence (Q06187 whole entry): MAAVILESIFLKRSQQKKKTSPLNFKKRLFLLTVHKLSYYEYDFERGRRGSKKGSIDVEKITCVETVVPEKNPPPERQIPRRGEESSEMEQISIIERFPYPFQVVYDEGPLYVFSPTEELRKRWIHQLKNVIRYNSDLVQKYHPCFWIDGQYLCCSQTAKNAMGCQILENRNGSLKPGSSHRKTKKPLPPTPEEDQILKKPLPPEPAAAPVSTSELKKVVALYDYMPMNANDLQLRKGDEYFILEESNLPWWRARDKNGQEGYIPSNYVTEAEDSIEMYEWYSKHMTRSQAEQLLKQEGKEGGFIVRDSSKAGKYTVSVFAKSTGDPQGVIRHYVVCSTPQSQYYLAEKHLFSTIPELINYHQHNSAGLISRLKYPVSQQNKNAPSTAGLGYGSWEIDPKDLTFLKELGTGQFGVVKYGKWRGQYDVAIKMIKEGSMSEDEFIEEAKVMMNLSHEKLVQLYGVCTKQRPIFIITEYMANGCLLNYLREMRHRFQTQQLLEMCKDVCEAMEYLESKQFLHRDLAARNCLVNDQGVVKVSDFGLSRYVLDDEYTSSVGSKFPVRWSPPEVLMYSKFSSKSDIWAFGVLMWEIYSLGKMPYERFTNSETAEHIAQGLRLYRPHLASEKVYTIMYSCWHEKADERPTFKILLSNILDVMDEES

JAK3 = biological target: T2, JAK3 (Homo sapiens, UniProt P52333); assay: Inhibition of a panel of kinases, in vitro HotSpot kinase assay: JAK3; conditions: Table 13, A compounds; 1 μM ATP; read-out: IC50 JAK3
T2 sequence (P52333 1-1124): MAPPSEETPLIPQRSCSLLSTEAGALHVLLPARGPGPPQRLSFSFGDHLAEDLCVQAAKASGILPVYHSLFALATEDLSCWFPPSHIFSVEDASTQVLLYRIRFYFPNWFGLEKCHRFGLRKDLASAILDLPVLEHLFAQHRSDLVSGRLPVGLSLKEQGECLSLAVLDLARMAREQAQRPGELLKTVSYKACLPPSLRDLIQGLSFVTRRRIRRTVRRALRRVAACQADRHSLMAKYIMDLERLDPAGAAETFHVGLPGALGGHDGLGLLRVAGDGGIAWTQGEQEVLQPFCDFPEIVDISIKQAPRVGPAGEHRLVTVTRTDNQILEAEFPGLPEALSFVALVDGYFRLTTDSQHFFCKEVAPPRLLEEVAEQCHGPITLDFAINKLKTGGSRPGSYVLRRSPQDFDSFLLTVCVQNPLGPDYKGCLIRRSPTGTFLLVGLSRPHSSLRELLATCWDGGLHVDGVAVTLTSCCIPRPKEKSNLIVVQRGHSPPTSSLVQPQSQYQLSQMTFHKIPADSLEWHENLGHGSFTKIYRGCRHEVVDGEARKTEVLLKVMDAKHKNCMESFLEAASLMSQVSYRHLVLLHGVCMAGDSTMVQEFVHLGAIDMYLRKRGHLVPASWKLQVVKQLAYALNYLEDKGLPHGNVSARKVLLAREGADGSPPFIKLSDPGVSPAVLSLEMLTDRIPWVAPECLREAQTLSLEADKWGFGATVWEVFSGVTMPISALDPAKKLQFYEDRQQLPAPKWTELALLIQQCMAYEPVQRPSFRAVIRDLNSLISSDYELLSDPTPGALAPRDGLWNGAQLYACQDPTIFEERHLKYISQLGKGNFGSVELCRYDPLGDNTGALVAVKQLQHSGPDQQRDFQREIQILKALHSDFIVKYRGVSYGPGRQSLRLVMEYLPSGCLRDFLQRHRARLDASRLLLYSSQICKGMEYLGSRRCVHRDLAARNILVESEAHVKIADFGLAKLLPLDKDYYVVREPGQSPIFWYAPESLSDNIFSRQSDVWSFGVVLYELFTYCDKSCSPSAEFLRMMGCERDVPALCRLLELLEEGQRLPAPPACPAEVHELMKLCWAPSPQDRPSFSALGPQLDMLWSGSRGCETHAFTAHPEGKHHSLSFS

LCK = LCK (Homo sapiens, UniProt P06239); assay: Inhibition of a panel of kinases, in vitro HotSpot kinase assay: LCK; conditions: Table 13, A compounds; 1 μM ATP; read-out: IC50 LCK
LCK, sequence (P06239 whole entry): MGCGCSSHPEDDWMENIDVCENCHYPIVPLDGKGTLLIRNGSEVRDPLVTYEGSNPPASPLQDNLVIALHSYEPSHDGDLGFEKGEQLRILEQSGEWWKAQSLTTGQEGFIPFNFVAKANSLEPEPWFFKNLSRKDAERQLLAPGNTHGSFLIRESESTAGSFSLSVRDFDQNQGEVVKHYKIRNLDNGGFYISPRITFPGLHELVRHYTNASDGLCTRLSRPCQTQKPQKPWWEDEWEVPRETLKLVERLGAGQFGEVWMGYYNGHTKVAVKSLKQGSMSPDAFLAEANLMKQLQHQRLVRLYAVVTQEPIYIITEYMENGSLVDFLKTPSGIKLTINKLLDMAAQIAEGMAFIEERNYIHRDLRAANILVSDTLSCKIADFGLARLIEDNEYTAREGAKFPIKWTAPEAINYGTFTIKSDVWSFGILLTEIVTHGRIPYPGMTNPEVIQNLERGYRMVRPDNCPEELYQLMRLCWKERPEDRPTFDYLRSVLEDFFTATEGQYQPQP

Compound | IC50 (BTK-WT) [nM] | IC50 (JAK3) [nM] | IC50 (LCK) [nM]
C[C@@H]1[C@H](NC(=O)c2ccc(C3CC3)cc2F)CCCN1c1cnc(C(N)=O)c(Nc2ccc(C3(C)CCN(C4CC4)CC3)cc2)n1 [Example A-174, 5-[(2R,3R)-3-(4-cyclopropyl-2-fluorobenzamido)-2-methylpiperidin-1-yl]-3-{[4-(1-cyclopropyl-4-methylpiperidin-4-yl)phenyl]amino}pyrazine-2-carboxamide] | ≤ 10 | 10 to 100 | 10 to 100
CN1CCC(n2cc(Nc3nc(N4CCC[C@@H](n5ccc6cc(C7CC7)ccc6c5=O)C4)cnc3C(N)=O)cn2)CC1 [Example A-178, 5-[(3R)-3-(6-cyclopropyl-1-oxo-1,2-dihydroisoquinolin-2-yl)piperidin-1-yl]-3-{[1-(1-methylpiperidin-4-yl)-1H-pyrazol-4-yl]amino}pyrazine-2-carboxamide] | ≤ 10 | 1000 to 10000 | 100 to 1000
C[C@@H]1[C@H](NC(=O)c2ccc(C3CC3)cn2)CCCN1c1cnc(C(N)=O)c(Nc2ccc(N3CCN(C)CC3)cc2)n1 [Example A-179, 5-[(2R,3R)-3-(5-cyclopropyl-pyridine-2-amido)-2-methylpiperidin-1-yl]-3-{[4-(4-methylpiperazin-1-yl)phenyl]amino}pyrazine-2-carboxamide] | ≤ 10 | 1000 to 10000 | 100 to 1000
C[C@@H]1[C@H](NC(=O)c2ccc(C3CC3)cc2Cl)CCCN1c1cnc(C(N)=O)c(Nc2ccc(N3CCN(C)CC3)cc2)n1 [Example A-180, 5-[(2R,3R)-3-(2-chloro-4-cyclopropylbenzamido)-2-methylpiperidin-1-yl]-3-{[4-(4-methylpiperazin-1-yl)phenyl]amino}pyrazine-2-carboxamide] | ≤ 10 | 1000 to 10000 | 10 to 100
C[C@@H]1[C@H](NC(=O)c2ccc(C3CC3)cc2)CCCN1c1cnc(C(N)=O)c(Nc2cc(CN3CCCCC3)ns2)n1 [Example A-181, 5-[(2R,3R)-3-(4-cyclopropylbenzamido)-2-methylpiperidin-1-yl]-3-{[3-(piperidin-1-ylmethyl)-1,2-thiazol-5-yl]amino}pyrazine-2-carboxamide] | ≤ 10 | 100 to 1000 | 10 to 100
C[C@@H]1[C@H](NC(=O)c2ccc(C3CC3)cc2)CCCN1c1cnc(C(N)=O)c(Nc2cnn(CCN(C)C)c2)n1 [Example A-182, 5-[(2R,3R)-3-(4-cyclopropylbenzamido)-2-methylpiperidin-1-yl]-3-({1-[2-(dimethylamino)ethyl]-1H-pyrazol-4-yl}amino)pyrazine-2-carboxamide] | 10 to 100 | 1000 to 10000 | 100 to 1000
Cc1cc(Nc2nc(N3CCC[C@@H](NC(=O)N4Cc5ccccc5C4=O)C3)cnc2C(N)=O)sn1 [Example A-183, N-[(3R)-1-{5-carbamoyl-6-[(3-methyl-1,2-thiazol-5-yl)amino]pyrazin-2-yl}piperidin-3-yl]-1-oxo-2,3-dihydro-1H-isoindole-2-carboxamide] | ≤ 10 | 1000 to 10000 | 10 to 100
C[C@@H]1[C@H](NC(=O)c2ccc(C(C)(C)C)cc2)CCCN1c1cnc(C(N)=O)c(Nc2ccc(N3CCN(C)CC3)cc2)n1 [Example A-184, 5-[(2R,3R)-3-(4-tert-butylbenzamido)-2-methylpiperidin-1-yl]-3-{[4-(4-methylpiperazin-1-yl)phenyl]amino}pyrazine-2-carboxamide] | ≤ 10 | > 10000 | > 10000
COCCN(C)Cc1cc(Nc2nc(N3CCC[C@@H](NC(=O)c4ccc(C5CC5)cc4)[C@H]3C)cnc2C(N)=O)sn1 [Example A-185, 5-((2R,3R)-3-(4-cyclopropylbenzamido)-2-methylpiperidin-1-yl)-3-(3-(((2-methoxyethyl)(meth-yl)amino)meth-yl)isothiazol-5-ylamino)pyr-azine-2-carboxamide] | ≤ 10 | 1000 to 10000 | 100 to 1000
COCCn1cc(Nc2nc(N3CCC[C@@H](NC(=O)c4ccc(C5CC5)cc4)[C@H]3C)cnc2C(N)=O)cn1 [Example A-186, 5-((2R,3R)-3-(4-cyclopropylbenzamido)-2-methylpiperidin-1-yl)-3-(1-(2-methoxylethyl)-1H-pyrazol-4-ylamino)pyrazine-2-carboxamide] | ≤ 10 | 1000 to 10000 | 100 to 1000
Cn1cc(Nc2nc(N3C[C@@H](NC(=O)c4ccc(C5CC5)cc4)CC(F)(F)C3)cnc2C(N)=O)cn1 [Example A-187, (S)-5-(5-(4-cyclopropylbenzamido)-3,3-difluoropiperidin-1-yl)-3-(1-methyl-1H-pyrazol-4-ylamino)pyrazine-2-carboxamide] | 100 to 1000 | 1000 to 10000 | > 10000

Other lines, results leading:

IC50 (BTK-WT) [nM] | IC50 (JAK3) [nM] | IC50 (LCK) [nM] | Compound
≤ 10 | 1000 to 10000 | 100 to 1000 | C[C@@H]1[C@H](NC(=O)c2ccc(C3CC3)cc2)CCCN1c1cnc(C(N)=O)c(Nc2cnn(C)c2)n1 [Example A-169, 5-[(2R,3R)-3-(4-cyclopropylbenzamido)-2-methylpiperidin-1-yl]-3-[(1-methyl-1H-pyrazol-4-yl)amino]pyrazine-2-carboxamide]
≤ 10 | 1000 to 10000 | 10 to 100 | C[C@@H]1[C@H](NC(=O)c2ccc(C3CC3)cc2)CCCN1c1cnc(C(N)=O)c(Nc2ccc(N3CCN(C)CC3)cc2)n1 [Example A-170, 5-[(2R,3R)-3-(4-cyclopropylbenzamido)-2-methylpiperidin-1-yl]-3-{[4-(4-methylpiperazin-1-yl)phenyl]amino}pyrazine-2-carboxamide]
≤ 10 | 1000 to 10000 | 10 to 100 | C[C@@H]1[C@H](NC(=O)c2ccc(C3CC3)cc2F)CCCN1c1cnc(C(N)=O)c(Nc2ccc(N3CCN(C)CC3)c(F)c2)n1 [Example A-171, 5-[(2R,3R)-3-(4-cyclopropyl-2-fluorobenzamido)-2-methylpiperidin-1-yl]-3-{[3-fluoro-4-(4-methylpiperazin-1-yl)phenyl]amino}pyrazine-2-carboxamide]
≤ 10 | 1000 to 10000 | 10 to 100 | C[C@@H]1[C@H](NC(=O)c2ccc(C3CC3)cc2)CCCN1c1cnc(C(N)=O)c(Nc2cnn(C3CCN(C)CC3)c2)n1 [Example A-173]
≤ 10 | > 10000 | > 10000 | C[C@@H]1[C@H](NC(=O)c2ccc(C3CC3)cc2F)CCCN1c1cnc(C(N)=O)c(Nc2ccc(S(=O)(=O)N3CCCC3)cc2)n1 [Example A-175, 5-[(2R,3R)-3-(4-cyclopropyl-2-fluorobenzamido)-2-methylpiperidin-1-yl]-3-{[4-(pyrrolidine-1-sulfonyl)phenyl]amino}pyr-azine-2-carboxamide]
≤ 10 | 100 to 1000 | 10 to 100 | C[C@@H]1[C@H](NC(=O)c2ccc(C3CC3)cc2F)CCCN1c1cnc(C(N)=O)c(Nc2ccc(N3CCN(C)C[C@@H]3C)cc2)n1 [Example A-176, 5-[(2R,3R)-3-(4-cyclopropyl-2-fluorobenzamido)-2-methylpiperidin-1-yl]-3-({4-[(2S)-2,4-dimethylpiperazin-1-yl]phenyl}amino)pyrazine-2-carboxamide]
≤ 10 | 1000 to 10000 | 100 to 1000 | C[C@@H]1[C@H](NC(=O)c2ccc(C3CC3)cc2F)CCCN1c1cnc(C(N)=O)c(Nc2ccc(N3CCN(C)CC3)nc2)n1 [Example A-177, 5-[(2R,3R)-3-(4-cyclopropyl-2-fluorobenzamido)-2-methylpiperidin-1-yl]-3-{[6-(4-methylpiperazin-1-yl)pyridin-3-yl]amino}pyrazine-2-caoxamide]

Reference: US20210070748A1, “INHIBITORS OF BRUTONS TYROSINE KINASE” (Pharmacyclics LLC, priority 2015, published 2021)
